Common to all, as to type: cell-based
Common to all, as to details: banded into grades

One experiment deals with Aspergillus flavus. Nature of the experiment: Measurement of Minimum Inhibitory Concentrations (MICs), A. flavus. As for the experimental part: (§1) Between 1 and 5 mgs of compound were accurately weighed out into a sterile Eppendorf tube. The compound was dissolved in DMSO to give a solution containing 5 mg/mL. Tubes were stored at −20° C. until required. On the day of testing thawed solutions were vortex mixed to ensure homogeneity. 30 μL of solution was removed and added to 570 μL of sterile water in a separate sterile Eppendorf. The thoroughly mixed solution was used to prepare a series of doubling dilutions in water, in a deep well plate. […] replicate plates were prepared using a Minitrak by aspirating […] from each well into eleven clear polystyrene 96 well plates. Spores of Aspergillus spp. (Aspergillus fumigatus [two strains], Aspergillus terreus [two strains], Aspergillus niger and Aspergillus flavus) were harvested from cultures grown on Sabarauds agar for 5 days, and resuspended in PBS/Tween 80 to approx 1×10^7 cfu/mL. Each organism suspension was diluted in YAG medium (1% glucose, 1% ammonium chloride and 0.5% yeast extract) to 0.5-2×10^4 cfu/mL. 80 μL of an organism suspension was added to each well of the plate containing drug dilutions. This produced MIC plates with a drug range 50-0.05 mg/L and organism inocula of 1−2×10^4 cfu/mL for Aspergillus spp. All plates were incubated for 24 hrs at 35° C. Growth was assessed by monitoring the optical density at 485 nm for each well. The MIC of a compound is the lowest drug concentration that inhibits growth of an organism by >70% compared with a drug free control. MICs are recorded as mg/L. In cases where the MIC of an organism is >=0.05 mg/L the MIC is repeated using a concentration range of 0.5-0.0005 mg/L. Other growth media can be used for susceptibility testing, and the activity of the described compounds was also assessed in RPMI medium containing 2% glucose, and 0.135M MOPS buffer. MIC tests in YAG medium have more clear-cut endpoints and have slightly lower MICs than those performed in RPMI medium. The following organisms were tested: Aspergillus flavus, Aspergillus fumigatus AF293 and AF210, Aspergillus niger and Aspergillus terreus AT4 and AT49.

For experiment [1], the system named is Aspergillus fumigatus AF293. The experiment can be described thus: Measurement of Minimum Inhibitory Concentrations (MICs), A. fumigatus. As for the experimental part:
as §1

The subject of experiment [2] is Aspergillus fumigatus AF210. The experiment can be described thus: Measurement of Minimum Inhibitory Concentrations (MICs), A. fumigatus 210. As for the experimental part:
as §1

For another experiment, the system named is Aspergillus niger. The experiment can be described thus: Measurement of Minimum Inhibitory Concentrations (MICs), A. niger. As for the experimental part:
as §1

Another experiment deals with Aspergillus terreus AT4. The experiment can be described thus: Measurement of Minimum Inhibitory Concentrations (MICs), A. terreus. On the procedure: as §1
Another experiment has as its system Aspergillus terreus AT49. The experiment can be described thus: Measurement of Minimum Inhibitory Concentrations (MICs), A. terreus 49. On the procedure:
as §1

The mark [3] stands for this setting: RPMI medium containing 2% glucose, 0.135M MOPS buffer.
[4] abbreviates: YAG medium, 24 hrs at 35° C., >70% growth inhibition.

Molecules are shown by their SMILES. Values after ≈ are worked out from the molar mass of the structure shown.

Take `Cc1cc(C)nc(N2CCN(c3ccc(NC(=O)C(=O)c4c(-c5ccccc5)cc5n4CCCC5)cc3COCCCN3CCN(C)CC3)CC2)c1` [Example 25, N-{4-[4-(4,6-Dimethyl-pyridin-2-yl)-piperazin-1-yl]-3-[3-(4-methyl-piperazin-1-yl)-propoxymethyl]-phenyl}-2-oxo-2-(2-phenyl-5,6,7,8-tetrahydro-indolizin-3-yl)-acetamide]: the minimal inhibitory concentration (MIC) (against Aspergillus flavus (setting [3]); in the experiment with Aspergillus flavus (setting [4]); in experiment [1] (setting [3]); in experiment [1] (setting [4]); in experiment [2] (setting [3]); in experiment [2] (setting [4])) was more than 10 µg/mL each time. For the same molecule, the MIC in the experiment on Aspergillus niger (setting [3]), in the experiment on Aspergillus niger (setting [4]), in the experiment with Aspergillus terreus AT4 (setting [3]), against Aspergillus terreus AT4 (setting [4]), against Aspergillus terreus AT49 (setting [3]) and against Aspergillus terreus AT49 (setting [4]) was more than 10 µg/mL in each case.

With `COCc1cc(N2CCN(c3cc(C)cc(C)n3)CC2)ccc1NC(=O)C(=O)c1c(-c2ccccc2)cc2n1CCCC2` [Example 24, N-{4-[4-(4,6-Dimethyl-pyridin-2-yl)-piperazin-1-yl]-2-methoxymethyl-phenyl}-2-oxo-2-(2-phenyl-5,6,7,8-tetrahydro-indolizin-3-yl)-acetamide], the MIC is 1 to 10 µg/mL (≈ 1.73 to 17.3 µM) against Aspergillus flavus (setting [3]); less than 1 µg/mL in the experiment on Aspergillus flavus (setting [4]); 1 to 10 µg/mL (≈ 1.73 to 17.3 µM) in experiment [1] (setting [3]); less than 1 µg/mL in experiment [1] (setting [4]); 1 to 10 µg/mL (≈ 1.73 to 17.3 µM) in experiment [2] (setting [3]); less than 1 µg/mL in experiment [2] (setting [4]). Further, the MIC with Aspergillus niger (setting [3]) is 1 to 10 µg/mL (≈ 1.73 to 17.3 µM); with Aspergillus niger (setting [4]) it was less than 1 µg/mL; with Aspergillus terreus AT4 (setting [3]), less than 1 µg/mL; with Aspergillus terreus AT4 (setting [4]), less than 1 µg/mL; in the experiment on Aspergillus terreus AT49 (setting [3]) it was less than 1 µg/mL; in the experiment on Aspergillus terreus AT49 (setting [4]) it was less than 1 µg/mL.

With `Cc1cc(C)nc(N2CCN(c3ccc(NC(=O)C(=O)c4c(-c5ccccc5)cc5n4CCCC5)cc3Cl)CC2)c1` [Example 27, N-{3-Chloro-4-[4-(4,6-dimethyl-pyridin-2-yl)-piperazin-1-yl]-phenyl}-2-oxo-2-(2-phenyl-5,6,7,8-tetrahydro-indolizin-3-yl)-acetamide], the minimum inhibitory concentration (MIC) (against Aspergillus flavus (setting [3]); in the experiment with Aspergillus flavus (setting [4]); in experiment [1] (setting [3]); in experiment [1] (setting [4]); in experiment [2] (setting [3]); in experiment [2] (setting [4])) was less than 1 µg/mL throughout. Further, the minimum inhibitory concentration (MIC) in the experiment on Aspergillus niger (setting [3]), against Aspergillus niger (setting [4]), with Aspergillus terreus AT4 (setting [3]), in the experiment on Aspergillus terreus AT4 (setting [4]), with Aspergillus terreus AT49 (setting [3]) and in the experiment on Aspergillus terreus AT49 (setting [4]) was less than 1 µg/mL in each case.

In the case of `Cc1cc(C)nc(OCCOc2ccc(NC(=O)C(=O)c3c(-c4ccccc4)cc4n3CCCC4)cc2)c1` [Example 9, N-{4-[2-(4,6-Dimethyl-pyridin-2-yloxy)-ethoxy]-phenyl}-2-oxo-2-(2-phenyl-5,6,7,8-tetrahydro-indolizin-3-yl)-acetamide], the minimum inhibitory concentration (MIC) (in the experiment on Aspergillus flavus (setting [3]); against Aspergillus flavus (setting [4]); in experiment [1] (setting [3]); in experiment [1] (setting [4]); in experiment [2] (setting [3]); in experiment [2] (setting [4])) was less than 1 µg/mL throughout. Further, the MIC in the experiment on Aspergillus niger (setting [3]), in the experiment on Aspergillus niger (setting [4]), in the experiment on Aspergillus terreus AT4 (setting [3]), in the experiment with Aspergillus terreus AT4 (setting [4]), against Aspergillus terreus AT49 (setting [3]) and in the experiment on Aspergillus terreus AT49 (setting [4]) was less than 1 µg/mL each time.

Take `Cc1cc(C)nc(N(C)CCN(C)c2ccc(NC(=O)C(=O)c3c(-c4ccccc4)cc4n3CCCC4)cc2)c1` [Example 7, N-[4-({2-[(4,6-Dimethyl-pyridin-2-yl)-methyl-amino]-ethyl}-methyl-amino)-phenyl]-2-oxo-2-(2-phenyl-5,6,7,8-tetrahydro-indolizin-3-yl)-acetamide]: the MIC (with Aspergillus flavus (setting [3]); against Aspergillus flavus (setting [4]); in experiment [1] (setting [3]); in experiment [1] (setting [4]); in experiment [2] (setting [3]); in experiment [2] (setting [4])) was less than 1 µg/mL each time. Besides, the MIC with Aspergillus niger (setting [3]), with Aspergillus niger (setting [4]), with Aspergillus terreus AT4 (setting [3]), in the experiment on Aspergillus terreus AT4 (setting [4]), in the experiment with Aspergillus terreus AT49 (setting [3]) and with Aspergillus terreus AT49 (setting [4]) was less than 1 µg/mL each time.

With `Cc1cc(C)nc(N2CCN(c3ccc(NC(=O)C(=O)c4c(-c5ccccc5)cc5n4CCCC5)cc3O)CC2)c1` [Example 31, N-{4-[4-(4,6-Dimethyl-pyridin-2-yl)-piperazin-1-yl]-3-hydroxy-phenyl}-2-oxo-2-(2-phenyl-5,6,7,8-tetrahydro-indolizin-3-yl)-acetamide], the MIC (in the experiment with Aspergillus flavus (setting [3]); against Aspergillus flavus (setting [4]); in experiment [1] (setting [3]); in experiment [1] (setting [4]); in experiment [2] (setting [3]); in experiment [2] (setting [4])) was less than 1 µg/mL each time. Moreover, the MIC in the experiment with Aspergillus niger (setting [3]), against Aspergillus niger (setting [4]), with Aspergillus terreus AT4 (setting [3]), in the experiment on Aspergillus terreus AT4 (setting [4]), against Aspergillus terreus AT49 (setting [3]) and in the experiment with Aspergillus terreus AT49 (setting [4]) was less than 1 µg/mL each time.

Consider `Cc1cc(C)nc(N2CCN(c3ccc(NC(=O)C(=O)c4c(-c5ccccc5)cc5n4CCCC5)cc3COCCN(C)C)CC2)c1` [Example 29, N-{3-(2-Dimethylamino-ethoxymethyl)-4-[4-(4,6-dimethyl-pyridin-2-yl)-piperazin-1-yl]-phenyl}-2-oxo-2-(2-phenyl-5,6,7,8-tetrahydro-indolizin-3-yl)-acetamide], for which the minimal inhibitory concentration (MIC) in the experiment with Aspergillus flavus (setting [3]) is more than 10 µg/mL; with Aspergillus flavus (setting [4]), more than 10 µg/mL; in experiment [1] (setting [3]) it was more than 10 µg/mL; in experiment [1] (setting [4]), more than 10 µg/mL; in experiment [2] (setting [3]), more than 10 µg/mL; in experiment [2] (setting [4]) it was 1 to 10 µg/mL (≈ 1.58 to 15.8 µM). Also, the MIC against Aspergillus niger (setting [3]) was 1 to 10 µg/mL (≈ 1.58 to 15.8 µM); in the experiment with Aspergillus niger (setting [4]), more than 10 µg/mL; in the experiment with Aspergillus terreus AT4 (setting [3]) it was more than 10 µg/mL; with Aspergillus terreus AT4 (setting [4]), 1 to 10 µg/mL (≈ 1.58 to 15.8 µM); against Aspergillus terreus AT49 (setting [3]), 1 to 10 µg/mL (≈ 1.58 to 15.8 µM); with Aspergillus terreus AT49 (setting [4]) it was 1 to 10 µg/mL (≈ 1.58 to 15.8 µM).

In the case of `Cc1ccc(N2CCN(c3ccc(NC(=O)C(=O)c4c(-c5ccccc5)cc5n4CCCC5)cc3)CC2)nc1` [Example 16, N-{4-[4-(5-Methyl-pyridin-2-yl)-piperazin-1-yl]-phenyl}-2-oxo-2-(2-phenyl-5,6,7,8-tetrahydro-indolizin-3-yl)-acetamide], the MIC (against Aspergillus flavus (setting [3]); against Aspergillus flavus (setting [4]); in experiment [1] (setting [3]); in experiment [1] (setting [4]); in experiment [2] (setting [3]); in experiment [2] (setting [4])) was less than 1 µg/mL each time. The MIC against Aspergillus niger (setting [3]), with Aspergillus niger (setting [4]), in the experiment with Aspergillus terreus AT4 (setting [3]), in the experiment on Aspergillus terreus AT4 (setting [4]), in the experiment with Aspergillus terreus AT49 (setting [3]) and in the experiment on Aspergillus terreus AT49 (setting [4]) was less than 1 µg/mL throughout.

Take `O=C(NC1CCN(c2ccccc2)CC1)C(=O)c1c(-c2ccccc2)cc2n1CCCC2` [Example 12, 2-Oxo-N-(1-phenyl-piperidin-4-yl)-2-(2-phenyl-5,6,7,8-tetrahydro-indolizin-3-yl)-acetamide]: the minimum inhibitory concentration (MIC) against Aspergillus flavus (setting [3]) is more than 10 µg/mL; in the experiment with Aspergillus flavus (setting [4]) it was more than 10 µg/mL; in experiment [1] (setting [3]), 1 to 10 µg/mL (≈ 2.34 to 23.4 µM); in experiment [1] (setting [4]) it was less than 1 µg/mL; in experiment [2] (setting [3]) it was 1 to 10 µg/mL (≈ 2.34 to 23.4 µM); in experiment [2] (setting [4]) it was less than 1 µg/mL. Moreover, the MIC against Aspergillus niger (setting [3]) was 1 to 10 µg/mL (≈ 2.34 to 23.4 µM); in the experiment on Aspergillus niger (setting [4]), less than 1 µg/mL; against Aspergillus terreus AT4 (setting [3]), 1 to 10 µg/mL (≈ 2.34 to 23.4 µM); against Aspergillus terreus AT4 (setting [4]), less than 1 µg/mL; with Aspergillus terreus AT49 (setting [3]), 1 to 10 µg/mL (≈ 2.34 to 23.4 µM); in the experiment on Aspergillus terreus AT49 (setting [4]) it was less than 1 µg/mL.

One may read the MIC as the lowest concentration found to suppress growth.
